Our source for the IC50 and inhibition values is EP0923529B1 (Bayer Corporation, priority 1996, dated 1997).

Like-named read-outs stand apart in the source and are kept apart here.

In general, IC50 refers to the midpoint of a concentration-inhibition curve. By inhibition is commonly meant the drop in the measured response relative to a control, in per cent.

Common to all, as to type: biochemical
The target in one experiment is T1, MMP-3 (Homo sapiens, UniProt P08254).
T1 construct: made in house; host or cells: CHO cells
T1 sequence (P08254 100-477): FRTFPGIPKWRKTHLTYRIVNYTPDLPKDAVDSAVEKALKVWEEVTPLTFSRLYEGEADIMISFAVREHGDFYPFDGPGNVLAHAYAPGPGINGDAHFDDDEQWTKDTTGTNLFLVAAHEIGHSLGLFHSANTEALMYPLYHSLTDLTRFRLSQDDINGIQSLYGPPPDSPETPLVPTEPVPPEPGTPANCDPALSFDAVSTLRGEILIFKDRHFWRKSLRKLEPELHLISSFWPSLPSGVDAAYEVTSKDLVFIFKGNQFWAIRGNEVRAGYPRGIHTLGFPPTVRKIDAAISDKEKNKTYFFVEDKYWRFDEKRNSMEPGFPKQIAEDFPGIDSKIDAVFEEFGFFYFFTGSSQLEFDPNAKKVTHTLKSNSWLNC
The experiment is described as follows: P218 quenched fluorescence assay (MMP Microfluorometric Profiling Assay), MMP-3. To be noted: for IC50: P218 substrate 6 µM, 25 min at 37 °C, pH 6.5; for inhibition at 5 µM: inhibitor at 5 µM, given as I = x %. An excerpt:
(§1) The P218 quenched fluorescence assay (Microfluorometric Profiling Assay) is a modification of that originally described by C. G. Knight et al., FEBS Letters, 296, 263-266 (1992) for a related substrate and a variety of matrix metalloproteinases (MMPs) in cuvettes. The assay was run with each exemplary compound of the invention and the three MMPs, MMP-3, MMP-9 and MMP-2, analyzed in parallel, adapted as follows for a 96-well microtitre plate and a Hamilton AT® workstation.
(§2) P218 is a synthetic substrate containing a 4-acetyl-7-methoxycoumarin (MCA) group in the N-terminal position and a 3-(2,4-dinitrophenyl)-(L)-2,3-diaminopropionyl (DPA) group internally. This is a modification of a peptide reported by Knight (1992) that was used as a substrate for matrix metalloproteinases. Once the P218 peptide is cleaved (putative clip site at the Ala-Leu bond), the fluorescence of the MCA group can be detected on a fluorometer with excitation at 328 nm and emission at 393 nm. P218 is currently being produced by BACHEM Bioscience, Inc. exclusively for the Bayer Corp. P218 has the structure: H-MCA-Pro-Lys-Pro-Leu-Ala-Leu-DPA-Ala-Arg-NH2 (MW 1332.2)
Recombinant Human CHO Pro-MMP-3: Human CHO pro-stromelysin-257 (pro-MMP-3) was expressed and purified as described by T. J. Housley et al., J. Biol. Chem., 268, 4481-4487 (1993).
Activation of Pro-MMP-3: Pro-MMP-3 at 1.72 µM (100 µg/mL) in an MMP-3 activation buffer consisting of 5 mM Tris at pH 7.5, 5 mM CaCl2, 25 mM NaCl, and 0.005% Brij-35 was activated by incubation with TPCK (N-tosyl-(L)-phenylalanine chloromethyl ketone) trypsin (1:100 w/w to pro-MMP-3) at 25 °C for 30 min. The reaction was stopped by addition of soybean trypsin inhibitor (SBTI; 5:1 w/w to trypsin concentration).
(§3) Hamilton Microlab AT Plus®: The MMP-profiling assay was performed robotically using a Hamilton MicroLab AT Plus®. The Hamilton was programmed to: (1) serially dilute up to 11 potential inhibitors automatically using a 2.5 mM stock solution of the inhibitor in 100% DMSO; (2) distribute substrate followed by inhibitor into a 96-well Cytofluor plate; and (3) add a single enzyme to the plate with mixing to start the reaction. Subsequent plates for each additional enzyme were prepared automatically by beginning the program at the substrate addition point, remixing the diluted inhibitors, and beginning the reaction by addition of enzyme. In this way, all MMP assays were done using the same inhibitor dilutions.
(§4) Millipore Cytofluor II: Following incubation, the plate was read on a Cytofluor II fluorometric plate reader with excitation at 340 nm and emission at 395 nm with the gain set at 80.
(§5) Microfluorometric Reaction Buffer (MRB): Dilutions of test compounds, enzymes and P218 substrate for the microfluorometric assay were made in microfluorometric reaction buffer (MRB) consisting of 50 mM 2-(N-morpholino)ethanesulfonic acid (MES) at pH 6.5 with 10 mM CaCl2, 150 mM NaCl, 0.005 % Brij-35 and 1% DMSO.
(§6) MMP Microfluorometric Profiling Assay. The assay was done with a final P218 concentration of 6 µM, approximately 0.5 to 0.8 nM of activated MMP (one MMP per 96-well plate), and with variable inhibitor concentrations. The Hamilton MicroLab AT Plus® was programmed to serially dilute up to 11 compounds from a 2.5 mM stock (100% DMSO) to 10-times the final compound concentrations in the assay. Initially, the instrument delivered various amounts of microfluorometric reaction buffer (MRB) to a 96-tube rack of 1 mL Marsh dilution tubes. The instrument picked up 20 µL inhibitor (2.5 mM) and mixed it with buffer in row A of the Marsh rack, resulting in a 50 µM inhibitor concentration. The inhibitors were then serially diluted to 10, 5, 1, 0.2, 0.05 and 0.01 µM. […] The instrument re-mixed and loaded 14.5 µL of diluted compound from rows A to G in the Marsh rack to the corresponding rows in the microtiter plate.

The target of a further experiment is T2, MMP-2 (Homo sapiens, UniProt P08253).
T2 sequence (P08253 110-660): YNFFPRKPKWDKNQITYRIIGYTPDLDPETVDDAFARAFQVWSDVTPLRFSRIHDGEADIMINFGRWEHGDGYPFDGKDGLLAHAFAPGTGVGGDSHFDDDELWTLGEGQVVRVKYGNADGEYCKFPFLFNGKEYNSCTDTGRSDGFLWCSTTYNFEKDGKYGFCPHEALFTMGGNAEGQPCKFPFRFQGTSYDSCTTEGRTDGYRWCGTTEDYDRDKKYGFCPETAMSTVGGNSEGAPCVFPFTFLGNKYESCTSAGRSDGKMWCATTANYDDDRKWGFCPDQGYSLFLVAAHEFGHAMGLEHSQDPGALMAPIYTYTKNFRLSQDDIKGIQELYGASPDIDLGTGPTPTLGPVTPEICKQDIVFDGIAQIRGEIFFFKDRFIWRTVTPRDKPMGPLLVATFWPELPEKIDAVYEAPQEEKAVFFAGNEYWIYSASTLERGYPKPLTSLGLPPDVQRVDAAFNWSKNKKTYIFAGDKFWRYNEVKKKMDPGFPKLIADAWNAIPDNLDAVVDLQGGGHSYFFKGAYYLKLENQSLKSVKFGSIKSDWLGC
Description: P218 quenched fluorescence assay (MMP Microfluorometric Profiling Assay), MMP-2. To be noted: for inhibition at 5 µM: read-out: MMP-2 % inhibition at 5 µM, inhibitor at 5 µM, given as I = x %.

For a further experiment, the target named is T3, MMP-9 (Homo sapiens, UniProt P14780).
T3 construct: made in house
T3 sequence (P14780 107-707 limits assumed): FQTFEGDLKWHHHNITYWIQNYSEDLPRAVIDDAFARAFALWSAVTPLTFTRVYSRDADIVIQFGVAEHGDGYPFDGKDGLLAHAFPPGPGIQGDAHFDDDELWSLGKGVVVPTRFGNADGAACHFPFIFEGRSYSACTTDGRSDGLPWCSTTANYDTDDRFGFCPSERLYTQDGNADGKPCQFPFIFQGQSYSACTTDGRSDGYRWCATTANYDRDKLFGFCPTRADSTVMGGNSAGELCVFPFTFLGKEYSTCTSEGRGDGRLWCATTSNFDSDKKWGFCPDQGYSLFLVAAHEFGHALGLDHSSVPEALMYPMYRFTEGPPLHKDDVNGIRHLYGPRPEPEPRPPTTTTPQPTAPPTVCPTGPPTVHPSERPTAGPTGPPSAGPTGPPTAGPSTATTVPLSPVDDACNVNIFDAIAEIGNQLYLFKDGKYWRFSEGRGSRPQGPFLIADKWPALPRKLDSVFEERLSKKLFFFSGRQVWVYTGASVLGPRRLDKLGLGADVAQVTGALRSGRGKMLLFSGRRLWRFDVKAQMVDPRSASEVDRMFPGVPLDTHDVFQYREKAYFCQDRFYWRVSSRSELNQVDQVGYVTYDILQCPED
Description: P218 quenched fluorescence assay (MMP Microfluorometric Profiling Assay), MMP-9. To be noted: for IC50: P218 substrate 6 µM, 25 min at 37 °C, pH 6.5; for inhibition at 5 µM: read-out: MMP-9 % inhibition at 5 µM, inhibitor at 5 µM, given as I = x %.
Source text: as §1, §2
Human Recombinant Pro-MMP-9: Human recombinant pro-gelatinase B (pro-MMP-9) derived from U937 cDNA as described by S. M. Wilhelm et al., J. Biol. Chem., 264, 17213-17221 (1989) was expressed as the full-length form using a baculovirus protein expression system. The pro-enzyme was purified using methods previously described by M.S. Hibbs, et al., J. Biol. Chem., 260, 2493-500 (1984).
Activation of Pro-MMP-9 : Pro-MMP-9 (20 µg/mL) in an MMP-9 activation buffer consisting of 50 mM Tris at pH 7.4, 150 mM NaCl, 10 mM CaCl2 and 0.005% Brij-35 was activated by incubation with a 0.5 mM p-aminophenylmercuric acetate (APMA) for 3.5 h at 37 °C. The enzyme was dialyzed against the same buffer to remove APMA.
as §3, §4, §5
as §6, with “plate. […]” for “plate.”

Setting [1] is: P218 substrate 6 µM, 25 min at 37 °C, pH 6.5, read-out: MMP-2 IC50.

On to `O=C(CC(CCCc1ccccc1)C(=O)O)c1ccc(C#CCO)cc1` (racemic) [Example 1, 4-(4-(3-hydroxyprop-1-ynyl)phenyl)-4-oxo-2-(3-phenylpropyl)butyric acid], for which the half-maximal inhibitory concentration (IC50) against MMP-3 was found to be 3300 nM; at MMP-2 (setting [1]), 485 nM; on MMP-9, 1850 nM.
`O=C(CC(CCN1C(=O)c2ccccc2C1=O)C(=O)O)c1ccc(Br)cc1` (stereo not shown) [Compound B, 4-(4-bromophenyl)-4-oxo-2-(2-phthalimidoethyl) butyric acid, reference compound] showed an inhibition at 5 µM against MMP-3 of 46%. The IC50 was determined as 2400 nM at MMP-2 and 1450 nM at MMP-9.
For `O=C(CC(CCCc1ccccc1)C(=O)O)c1ccccc1` (stereo not shown) [Compound C, 4-phenyl-4-oxo-2-(3-phenylpropyl)butyric acid, reference compound], the results for the inhibition at 5 µM at MMP-3, on MMP-2 and at MMP-9 were 20%, 36% and 23%, respectively.
On to `O=C(CC(CCN1C(=O)c2ccccc2C1=O)C(=O)O)c1ccccc1` (stereo not shown) [Compound D, 4-phenyl-4-oxo-2-(2-phthalimidoethyl)butyric acid, reference compound], for which the half-maximal inhibitory concentration (IC50) at MMP-3 was 5000 nM; against MMP-2, 1400 nM; against MMP-9, 1000 nM.
On to `CC(C)(C)[Si](C)(C)OCCCCC#Cc1ccc(C(=O)CC(CCN2C(=O)c3ccccc3C2=O)C(=O)O)cc1` (stereo not shown) [Compound E, reference compound], for which the values for the IC50 against MMP-3, on MMP-2 (setting [1]) and against MMP-9 were 5100 nM, 1450 nM and 5050 nM, respectively.
For the compound `CCCCCCCCCCCCCCOc1ccc(C(=O)CC(CCN2C(=O)c3ccccc3C2=O)C(=O)O)cc1` (stereo not shown) [Compound F, 4-(4-tetradecyloxyphenyl)-4-oxo-2-(2-phthalimidoethyl)butyric acid, reference compound], the inhibition at 5 µM at MMP-3 is 18%; on MMP-2 it was 16%; at MMP-9, 6%.
For `COc1ccc(C(=O)CC(CCN2C(=O)c3ccccc3C2=O)C(=O)O)cc1` (stereo not shown) [Compound G, 4-(4-methoxyphenyl)-4-oxo-2-(2-phthalimidoethyl)butyric acid, reference compound], in that order: 29%, 48% and 46%.
On to `CCCCC#Cc1ccc(C(=O)CC(CCCc2ccccc2)C(=O)O)cc1` (stereo not shown) [Example 2, 4-(4-(hex-1-ynyl)phenyl)-4-oxo-2-(3-phenylpropyl)butyric acid], for which the IC50 turned out to be 1870 nM against MMP-3, 460 nM against MMP-2 and 1570 nM on MMP-9.
`O=C(CC(CCCc1ccccc1)C(=O)O)c1ccc(C#CCCCCO)cc1` (stereo not shown) [Example 3, 4-(4-(6-hydroxyhex-12-ynyl)phenyl)-4-oxo-2-(3-phenylpropyl)butyric acid] registered an inhibition at 5 µM at MMP-3 of 43%. For the same compound, the values for the half-inhibitory concentration (IC50) at MMP-2 (setting [1]) and against MMP-9 were 640 nM and 4350 nM, respectively.
Regarding `CCCCC#Cc1ccc(C(=O)CC(CCN2C(=O)c3ccccc3C2=O)C(=O)O)cc1` (stereo not shown) [Example 4], the IC50 against MMP-3 came out at 125 nM; at MMP-2, 42 nM; on MMP-9, 20 nM.
For `O=C(CC(CCN1C(=O)c2ccccc2C1=O)C(=O)O)c1ccc(C#CCCCCO)cc1` (stereo not shown) [Example 5, 4-(4-(6-hydroxyhex-1-ynyl)phenyl)-4-oxo-2-(2-phthalimidoethyl)butyric acid], in that order: 870 nM, 92 nM and 150 nM.
The corresponding values for `O=C(CC(CCN1C(=O)c2ccccc2C1=O)C(=O)O)c1ccc(C#CCO)cc1` (stereo not shown) [Example 6, 4-(4-(3-hydroxyprop-1-ynyl)phenyl)-4-oxo-2-(2-phthalimidoethyl)butyric acid] are 565 nM, 130 nM and 76 nM.
With `CCCCCCc1ccc(C(=O)CC(CCN2C(=O)c3ccccc3C2=O)C(=O)O)cc1` (stereo not shown) [Example 7, 4-(4-hexylphenyl)-4-oxo-2-(2-phthalimidoethyl) butyric acid], the IC50 on MMP-3 was 1040 nM; against MMP-2, 295 nM; at MMP-9, 400 nM.
The corresponding values for `CCCCCCCOc1ccc(C(=O)CC(CCN2C(=O)c3ccccc3C2=O)C(=O)O)cc1` (stereo not shown) [Example 10, 4-(4-heptyloxyphenyl)-4-oxo-2-(2-phthalimidoethyl) butyric acid] are 61 nM, 40 nM and 85 nM.
The corresponding values for `CCCCCCOc1ccc(C(=O)CC(CCN2C(=O)c3ccccc3C2=O)C(=O)O)cc1` (stereo not shown) [Example 11, 4-(4-hexyloxyphenyl)-4-oxo-2-(2-phthalimidoethyl) butyric acid] are 114 nM, 79 nM and 68 nM.
Consider `CCCCCCCCCCOc1ccc(C(=O)CC(CCN2C(=O)c3ccccc3C2=O)C(=O)O)cc1` (stereo not shown) [Example 12, 4-(4-decyloxyphenyl)-4-oxo-2-(2-phthalimidoethyl) butyric acid], for which the 50% inhibitory concentration (IC50) at MMP-9 was found to be 360 nM.
